From patent US20070020195A1, “Nasally administered appetite suppressants” (priority 2005, published 2007)
“And” between values parts separate entries of the source, which are not always exact repeats. Identical values can stand only once.

Assays:
[1] = cited from earlier work
[2] = Dose-escalation food intake trial in obese subjects with Universal Eating Monitor (Examples 2-5); assay type: in vivo, human
[3] = 70 kg adult; cited from earlier work
[4] = Double-blind crossover food intake study, intranasal lidocaine vs saline before a fried chicken meal; assay type: in vivo, human; conditions: four subjects
Procedure: Three males and one female between 23 and 60 years of age with BMI's less than 25 kg/m2 participated in a study of food intake. The subjects presented to the food intake laboratory at noon after an overnight fast except for water from 9 pm the prior night on two occasions a week apart. They had 10 mg (0.5 cc) of lidocaine or 0.5 cc normal saline administered in each nostril 20 minutes before presentation of a meal consisting of fried chicken pieces and water. They were allowed to eat and drink as much or as little as they wished over a 20-minute period, and there were more chicken pieces than they could reasonably be expected to eat at one sitting. The order of the lidocaine and saline was balanced and the study was performed in a double-blind fashion.
The four subjects consumed 15%, 11%, 27% and 33% less on the lidocaine week compared to the placebo week. […] Sibutramine, an obesity drug, gives an 8% weight loss at 6 months and causes a 12% decrease in food intake.

[5] = applied topically; cited from earlier work

## CC(C)CC(N(C)C)C1(c2ccc(Cl)cc2)CCC1 (stereo not shown) [Sibutramine]
[1]; at 6 months
  weight loss: 8%
[1]; in vivo
  decrease in food intake: 12%

## Cn1c(=O)c2c(ncn2C)n(C)c1=O [caffeine]
[2]; about 200 mg caffeine orally or nasally added to lidocaine, Example 4
  effect on energy expenditure: increasing energy expenditure

## CCN(CC)CC(=O)Nc1c(C)cccc1C [lidocaine]
[3]
  maximum safe dosage for topical anesthetic: 500 mg
[4]; 10 mg (0.5 cc) lidocaine in each nostril 20 minutes before meal, BMI less than 25 kg/m2
  reduction in food consumed on lidocaine week compared to placebo week, individual subjects: 15% and 11% and 27% and 33%
[4]; 10 mg lidocaine in each nostril 20 minutes before meal, p<0.02
  overall reduction in food intake: 21.5%+10.2%
[2]; 2.5, 10 and 25 mg lidocaine per nostril vs saline, BMI 30-40, Example 2
  food consumption with escalating doses: reduction in food consumption
[5]
  duration of anesthesia: 30 to 45 min
  time to peak anesthesia: 2 to 5 min

## leptin
[2]; about 20 mg per day leptin added to lidocaine, Example 5
  anorexiant effect: further anorexiant effect
